How the values were obtained:
[1] = DPPH free radical scavenging assay in tubo; assay type: biochemical
Excerpt: The capacity to scavenge the stable DPPH free radical can be expressed as a measure of antioxidant activity.
During this assay, the purple chromogen (DPPH) radical was reduced by antioxidant/reducing compounds to the corresponding pale-yellow hydrazine. The reduction of the purple chromogen radical by hydrogen-donating antioxidants was monitored by the decrease of optical density at long wavelengths (515-520 nm).
Ascorbic acid was also included in the assay as positive control for scavenger activity evaluation at 30 μM and 60 μM. After 30 minutes of incubation at room temperature and gentle shaking, the absorbance at 520 nm of each well was determined using the microplate reader Multiskan FC (Thermo Fisher Scientific, MA, USA), being directly proportional to the amount of DPPH left (not-scavenged) in the reaction mixture. Absorbance values were normalized on the basis of the control (non-treated wells) which was stablished as 100%, obtaining the corresponding percentage of activity for each of the treatments.

[2] = test system: Primary human epidermal melanocytes; experiment: Brightening activity: intracellular melanin content; assay type: cell-based; conditions: 7 days; for decrease in melanin content compared with positive reference control (kojic acid): 70 μM kojic acid
Experimental: Two concentrations of kojic acid were used as positive control.
(§1) Kojic acid was used as positive control.
Primary human epidermal melanocytes were incubated in 6-well plates for 4 days and then treated with the compounds to be analysed (Ac-SEQ ID NO: 1-NH2, Ac-SEQ ID NO: 2-NH2, Ac-SEQ ID NO: 3-NH2 or Ferulic acid-SEQ ID NO: 2-NH2) for 7 days. After treatment, cells were homogenized an intracellular melanin content was quantified by absorbance at 450 nm by Multiskan FC (Thermo Fisher Scientific, MA, USA).

[3] = Trolox Equivalent Antioxidant Capacity (TEAC), ABTS Decolorization Assay; assay type: biochemical
Experimental: As positive controls of the assay, ascorbic acid 2-glucoside (hereinafter, AA-2G) and magnesium ascorbyl phosphate (hereinafter, MAP) were tested.
TEAC assay was used in this case. Said assay measures the antioxidant capacity of a given substance, as compared to the standard, Trolox, an analogue of Vitamin E.
Antioxidant capacity was measured using the ABTS Decolorization Assay. In this assay, the pre-formed radical monocation of 2,2′-azinobis-(3-ethylbenzothiazoline-6-sulfonic acid) (ABTS*+) was generated by oxidation of ABTS with potassium persulfate and was reduced in the presence of antioxidants (Ac-SEQ ID NO: 1-NH2, Ac-SEQ ID NO: 2-NH2, Ac-SEQ ID NO: 3-NH2 or Ferulic acid-SEQ ID NO: 2-NH2). The ABTS.+ has a blue-green color, with maximum absorptions at 650, 734 and 820 nm. Antioxidants in the sample reduce ABTS.+ suppressing this color production to a degree that is proportional to their concentrations and antioxidant capacity. Quantification of absorbance was conducted at 734 nm using a Polarstar Omega equipment (BMG Labtech).

HEMn cells [4] = experiment: Gene expression of melanogenic pathways, HEMn cells, 11-day treatment (RTqPCR); assay type: cell-based, human
Excerpt: Changes in gene expression levels are represented as a positive or negative fold-change with regard to the basal control (untreated cells). For FIG. 16(A), bars from top to bottom in the y-axis refer to: COX-1 (Cyclooxigenase-1), MITF ([…]), MC1R (Melanocortin-1 receptor), MLAN-A (Melanoma antigen recognized by T-cells), C-KIT (Protoongogen receptor tyrosine kinase KIT), PMEL17 (Pre-melanosome protein), DCT-TYRP2 (Dopachrome tautomerase), TYRP-1 (Tyrosinase related protein 1) and TYR (Tyrosinase). For FIG. 16(B), bars from top to bottom in the y-axis refer to: BLOC-1 (Biogenesis of lysosome-related organelles complex-1), MITF ([…]), MC1R (Melanocortin-1 receptor), MLAN-A (Melanoma antigen recognized by T-cells), C-KIT (Protoongogen receptor tyrosine kinase KIT), PMEL17 (Pre-melanosome protein), DCT-TYRP2 (Dopachrome tautomerase), TYRP-1 (Tyrosinase related protein 1) and TYR (Tyrosinase). The x-axis refers to fold change versus basal control.
Changes in gene expression levels are represented as a positive or negative fold-change with regard to the basal control (untreated cells). Bars from top to bottom in the y-axis refer to: VDR (Vitamin D receptor), PMEL17 (Pre-melanosome protein) and DCT-TYRP2 (Dopachrome tautomerase). The x-axis refers to fold change versus basal control.
In the case of HEMn cells, cells were left in culture for 12 days (from day 0 to day 11, 11-day treatment) at standard culture conditions (37° C., 95% humidity, 5% CO2) and treated with non-cytotoxic concentrations of Ac-SEQ ID NO: 3-NH2 (0.1 mg/mL) or Ferulic acid-SEQ ID NO: 2-NH2 (0.05 mg/mL) from day 4 to day 11.
(§2) Untreated cells were used as basal control. Cells were then lysed for RNA extraction with a RNA purification commercial kit following manufacturer instructions (RNeasy mini kit, Qiagen, Netherlands). RNA was then quantified by nanodrop, adjusted in concentration and processed for retrotranscription to cDNA using a commercially available kit (High-Capacity cDNA Reverse Transcription kit—Thermofisher Scientific, USA). Resulting cDNA was used to perform a RTqPCR (Real Time Quantitative Polymerase Chain Reaction) using Taqman technology and a panel of probes designed to target specific genes related to melanogenesis and HEMn-HEKa and HEMn-HDFa communication.

HEMn cells [5] = experiment: Gene expression of melanogenic pathways, HEMn cells, 24-hour treatment (RTqPCR); assay type: cell-based, human; conditions: 0.1 mg/mL, treatment at 24 h
Excerpt: Changes in gene expression levels are represented as a positive or negative fold-change with regard to the basal control (untreated cells). For FIG. 16(A), bars from top to bottom in the y-axis refer to: COX-1 (Cyclooxigenase-1), MITF ([…]), MC1R (Melanocortin-1 receptor), MLAN-A (Melanoma antigen recognized by T-cells), C-KIT (Protoongogen receptor tyrosine kinase KIT), PMEL17 (Pre-melanosome protein), DCT-TYRP2 (Dopachrome tautomerase), TYRP-1 (Tyrosinase related protein 1) and TYR (Tyrosinase). […]
Untreated cells were used as basal control. […] RNA was then quantified by nanodrop, adjusted in concentration and processed for retrotranscription to cDNA using a commercially available kit (High-Capacity cDNA Reverse Transcription kit—Thermofisher Scientific, USA). Resulting cDNA was used to perform a RTqPCR (Real Time Quantitative Polymerase Chain Reaction) using Taqman technology and a panel of probes designed to target specific genes related to melanogenesis and HEMn-HEKa and HEMn-HDFa communication.

HEKa cells = experiment: Gene expression of HEMn-HEKa communication and melanogenic factors, HEKa cells, 24-hour treatment (RTqPCR); assay type: cell-based, human
Excerpt: Changes in gene expression levels are represented as a positive or negative fold-change with regard to the basal control (untreated cells). Bars from top to bottom in the y-axis refer to: KITLG (KIT ligand), TP53 (Tumor protein p53), DKK1 (Dickkopf-related protein 1) and NGF (Nerve growth factor). The x-axis refers to fold change verus basal control.
Changes in gene expression levels are represented as a positive or negative fold-change with regard to the basal control (untreated cells). Bars from top to bottom in the y-axis refer to: KITLG (KIT ligand), POMC (Pro-opiomelanocortin), EDN1 (Endothelin-1) and NGF (Nerve growth factor). The x-axis refers to fold change versus basal control.
Briefly, HEKa cells were seeded in duplicate in 6-well plates at a density of 4×10^5 cells/well and maintained at standard culture conditions (37° C., 95% humidity, 5% CO2) for 24 hours. Then, cells were treated with non-cytotoxic concentrations of Ac-SEQ ID NO: 3-NH2 (0.1 mg/mL) or Ferulic acid-SEQ ID NO: 2-NH2 (0.05 mg/mL) for an additional 24 hours.
as §2

[6] = test system: recombinant mushroom tyrosinase; experiment: Mushroom tyrosinase activity in tubo (L-DOPA); assay type: biochemical
Experimental: as §1, §1
After 2 hours' reaction at room temperature, the absorbance at 450 nm of each well was determined using the microplate reader Multiskan FC (Thermo Fisher Scientific, MA, USA), which is directly proportional to the amount of dopachrome in the reaction mixture.

Compound: O=C1O[C@H]([C@@H](O)CO)C(O)=C1O [ascorbic acid, reference compound]
- reduction of DPPH ([1]; 30 μM, positive control): 31.3%
- reduction of DPPH ([1]; 60 μM, positive control): 67.6%

Compound: Ac-His-Trp-Phe-Lys-NH2 (Ac-HWFK-NH2) [Ac-SEQ ID NO: 2-NH2]
- brightening or whitening activity compared with kojic acid ([2]; all the concentrations tested (0.01, 0.05, 0.1 mg/ml), kojic acid 10 and 50 μM): significantly higher brightening or whitening activity
- increased brightening activity relative to the activity of the two concentrations of kojic acid ([2]; all the concentrations tested, kojic acid 10 and 50 μM): two to more than four times
- trolox equivalents ([3]; 0.05 mg/mL): 22 µM
- trolox equivalents ([3]; 0.1 mg/mL): 49 µM
- trolox equivalents ([3]; 0.5 mg/mL): 130 µM
- antioxidant power compared with AA-2G and MAP ([3]; the higher concentration tested (0.5 mg/mL)): higher antioxidant power than AA-2G and MAP

Compound: Ac-Leu-His-Trp-Phe-Arg-Ala-NH2 (Ac-LHWFRA-NH2) [Ac-SEQ ID NO: 3-NH2]
- decrease in melanin content ([2]; 0.1 mg/mL): 49.3%
- decrease in melanin content compared with positive reference control (kojic acid) [2]: higher than the positive reference control
- C-KIT gene expression, fold change versus basal control (HEMn cells [4]; 0.1 mg/mL): −1.78 fold change
- COX-1 gene expression, fold change versus basal control (HEMn cells [4]; 0.1 mg/mL): −1.51 fold change
- DCT-TYRP2 gene expression, fold change versus basal control (HEMn cells [4]; 0.1 mg/mL): −1.40 fold change
- MC1R gene expression, fold change versus basal control (HEMn cells [4]; 0.1 mg/mL): −1.28 fold change
- MITF gene expression, fold change versus basal control (HEMn cells [4]; 0.1 mg/mL): −1.48 fold change
- MLAN-A gene expression, fold change versus basal control (HEMn cells [4]; 0.1 mg/mL): −1.88 fold change
- PMEL17 gene expression, fold change versus basal control (HEMn cells [4]; 0.1 mg/mL): −2.30 fold change
- TYR gene expression, fold change versus basal control (HEMn cells [4]; 0.1 mg/mL): −1.66 fold change
- TYRP-1 gene expression, fold change versus basal control (HEMn cells [4]; 0.1 mg/mL): −1.64 fold change
- trolox equivalents ([3]; 0.01 mg/mL): 28 µM
- trolox equivalents ([3]; 0.05 mg/mL): 59 µM
- trolox equivalents ([3]; 0.1 mg/mL): 74 µM
- expression of genes of the melanogenic pathway (HEMn cells [5]): tendency to downregulate gene expression was also observed
- DKK-1 gene expression (HEKa cells; 0.1 mg/mL): upregulation
- KITLG gene expression (HEKa cells; 0.1 mg/mL): downregulation
- NGF gene expression (HEKa cells; 0.1 mg/mL): downregulation
- TP53 gene expression (HEKa cells; 0.1 mg/mL): downregulation
- decrease in tyrosinase activity ([6]; 0.5 mg/mL): 30.6%
- decrease in tyrosinase activity ([6]; 1 mg/mL): 58.1%

Compound: Ferulic acid-His-Trp-Phe-Lys-NH2 [Ferulic acid-SEQ ID NO: 2-NH2]
- decrease in melanin content ([2]; 0.05 mg/mL): 36%
- decrease in melanin content compared with positive reference control (kojic acid) [2]: comparable
- DCT-TYRP2 expression (HEMn cells [4]; 0.05 mg/mL): slight tendency to downregulate
- PMEL17 expression (HEMn cells [4]; 0.05 mg/mL): slight tendency to downregulate
- VDR gene expression, fold change versus basal control (HEMn cells [4]; 0.05 mg/mL): 1.48 fold change
- trolox equivalents ([3]; 0.01 mg/mL): 59 µM
- trolox equivalents ([3]; 0.05 mg/mL): 112 µM
- trolox equivalents ([3]; 0.1 mg/mL): 113 µM
- antioxidant power compared with MAP ([3]; at this same concentration (0.05 mg/mL)): equals MAP values of trolox equivalents
- antioxidant power compared with AA-2G ([3]; concentrations >0.05 mg/mL): higher than the one of AA-2G
- reduction of DPPH ([1]; 0.05 mg/mL, 300 μM DPPH, 30 minutes): 48.3%
- reduction of DPPH ([1]; 0.1 mg/mL, 300 μM DPPH, 30 minutes): 72.9%
- reduction of DPPH ([1]; 0.5 mg/mL, 300 μM DPPH, 30 minutes): 90.6%
- EDN1 gene expression (HEKa cells; 0.05 mg/mL): downregulation
- KITLG gene expression (HEKa cells; 0.05 mg/mL): downregulation
- NGF gene expression (HEKa cells; 0.05 mg/mL): downregulation
- POMC gene expression (HEKa cells; 0.05 mg/mL): downregulation
- decrease in tyrosinase activity ([6]; 0.05 mg/mL): 12%
- decrease in tyrosinase activity ([6]; 0.1 mg/mL): 46.5%
- decrease in tyrosinase activity ([6]; 0.5 mg/mL): 71%
